From patent USRE37670E1, “Antiproliferative and neurotrophic molecules” (American Biogenetics Inc., priority 1994, dated 2002)

Key:
[1] = system: mouse neuro-2a neuroblastoma cells; experiment: Antiproliferative assay, cell counting after 48 h; assay type: cell-based
Protocol: Neuro-2a neuroblastoma cells were cultured in 25 cm^2 flasks for 48 hours in the presence of test medium. After 48 hours, cells were observed, photographed and harvested with trypsin for counting using a haemocytometer. Cell number is expressed as percentage mean±SEM (n=3) of control values.
Accordingly, representative cells may be cultured in vitro in the presence of varying concentration of test compound. At an appropriate time, the cells under the different conditions are examined for the appropriate parameter (for example, cell number for antimitotic activity; neurite outgrowth for neurotrophic activity) and the ED50 may be determined.
Antiproliferative and neuroprotective actions should be sufficient to achieve the desired inhibition of mitosis or neuroprotection without serious hetaptotoxic side effects. […] Dose response curves may be determined first in vitro in a relevant animal model to determine ranges of expected therapeutic concentrations in humans. […] Other cell lines, including those of human origin may be used to assesses activity as well.
The mouse neuro-2a neuroblastoma cell line (Klebe and Ruddle, 1969 J. Cell Biol., 43:69A) was cultured in Dulbecco's modified Eagle's medium (DMEM; Flow Laboratories) supplemented with 10% fetal bovine serum (Tissue Culture Services), […] glutamine and 100 μg/ml of gentamicin or 100 units/ml and 100 μg/ml of penicillin/streptomycin antibiotics (Sigma Chemicals). The cells were maintained in a water-humidified atmosphere of 9% CO2at 37° C. Cells were passaged using 0.025% trypsin (Gibco) in DMEM, and were seeded at a density of 1×10^4 cells/cm^2.
Neuro-2a cells were seeded in 25cm^2 flasks (Costar) at a density of 1×10^4 cells/cm^2. Following a recovery period of 24 h, the agent to be examined was added to the cells in a vehicle of dimethyl sulphoxide (DMSO), the volume of which was 0.2% of the total volume of medium bathing the cells. A flask containing the DMSO vehicle alone was employed as control. Following incubation for 48h, cells were examined using an inverted phase contrast microscope (Leitz Diavert) and photographed (Ilford 50ASA film). Cells were then harvested by trypsinization and were counted using a haemocytometer (improved Neubauer model).

[2] = system: neuro-2a neuroblastoma cells; experiment: Neurite outgrowth / differentiation, scanning electron microscopy; assay type: cell-based, mouse; conditions: for neurite outgrowth: 48 hours
Protocol: Neuroblastoma cells were cultured in the presence of 2-n-butyl-4-pentynoic acid (1.0 mM, 2 mM); and 2-n-pentyl-pentynoic acid (0.3 mM, 0.5 mM). Test medium was added to cells after 24 hours in culture and maintained as a test medium for 48 hours after which they were fixed in 2.5% glutaraldehyde and […] sodium phosphate buffer overnight at 4° C. Cells were postfixed with osmium tetroxide and prepared for scanning microscopy as described.
The neurotrophic activity associated with valproate and its analogues may be determined based on in vitro indices of differentiation, including inhibition of mitosis, increase in neurite outgrowth, and NCAM expression. For example, the ability to promote neurite outgrowth is correlated with enhanced survival of certain cultured neural cells including embryonic sensory and sympathetic neurons. Proliferating immature neuroblasts, in vitro, have a rounded shape and are loosely adherent to culture surfaces. In the presence of a neurotrophic factor, these cells become more adherent and sprout processes known in the art as neurites. Accordingly, in vitro neurite outgrowth may be used as an assay for determining concentrations of compound in contact with target cells which would be expected to achieve desirable neuroprotecting effects.
Cells which were to be examined by scanning electron microscopy were grown as previously described in 25cm^2 flasks. Following 48 h exposure to the agent, cells were fixed in a solution of 2.5% glutaraldehyde in 0.1M sodium phosphate buffer, pH 7.4, overnight at 4° C. The cells were post-fixed subsequently in phosphate-buffered 1% osmium tetroxide for 1 h at room temperature, washed and were dehydrated gradually for 1 hour using a series of ethanol concentrations stepwise from 20, 40, 60, 80 to a final concentration 100%.
Sections of the base of the tissue culture flask were removed and were critical point dried to minimize shrinkage and cracking. This was achieved by placing the samples in a Polaron critical point dryer and purging the chamber several times with CO2 to remove all traces of ethanol. After 1 h the temperature and pressure were increased to 40° C. and 1200 lbs/in^2, respectively, at which stage the critical point for carbon dioxide had been reached and drying was completed.
Specimens were subsequently removed from the chamber, mounted on stubs suitable for scanning electron microscopy using conductive carbon cement (Neubauer) and were sputter coated with gold under vacuum (5×10^−2 torr) in the presence of argon gas at a current of 20 mA for 3 minutes (Polaron E5100). Following gold-coating, samples were examined in the scanning electron microscope (JEOL 35C) at an accelerating voltage of 15 kV.

[3] = Teratogenic activity; conditions: in vivo
Excerpt: Nau, H. et al., Pharmacol. & Toxicol. (1991) 69:310-321.

[4] = system: Neural Cell Adhesion Molecule (NCAM) in neuro-2a neuroblastoma cells; experiment: NCAM immunofluorescence microscopy; assay type: cell-based, mouse; conditions: 1.0 mm; compared to control cells
Protocol: FIGS. 3A-1, 3A-2 and 3B: Neural Cell Adhesion Molecule (NCAM) immunofluorescence in neuro-2a neuroblastoma cells. […] Panel B. Neuroblastoma cells were cultured for 48 hours in the presence of increasing concentrations of 2-n-butyl-4-pentynoic acid and 2-n-pentyl-4-pentynoic acid. They were then fixed and prepared for staining with rabbit anti-NCAM antibody. A second anti-rabbit antibody conjugated to rhodamine was incubated with the cells to detect bound anti-NCAM antibody. […] Immunofluorescence is expressed as mean +/− SEM.
Cells were seeded in 24-well plates at a density of 1×10^4 cells/cm^2. Following a recovery period 24 h they were exposed for an additional 48 h to the drug under investigation. […] The cells were again washed three times with phosphate buffered saline pH 7.4 and were then mounted using Citifluor (Agar Scientific) containing a fluorescence enhancer. Fluorescence of rhodamine was visualized using an excitatory wavelength of 535 nm (Leica filter block N2.1) on a Leitz DMRB fluorescence microscope. Fluorescence intensity was examined at points of cell-cell contact using a Quantimet 500 Image Analysis System. Fluorescence intensity is expressed as grey level at points of cell contact relative to that observed in the control.

[5] = literature; cited from earlier work
[6] = experimental models; literature; cited from earlier work
[7] = system: neural derived cell proliferation; conditions: literature; cited from earlier work
[8] = human; literature; cited from earlier work

For `C#CCC(CC(C)C)C(=O)O` (stereo not drawn), the “antiproliferative potency / activity” value [1] was “low”, the prodifferentiative potency [2] was “low” and the teratogenic potency [3] was “low”.

With `C#CCC(CCCCCC)C(=O)O` (racemic) [2-n-hexyl-4-pentynoic acid, (±)-2-(2-propinyl)-Octanoic acid] the teratogenic potency [3] was “most potent”.

For `C#CCC(CCCC)C(=O)O` (stereo not drawn) [2-n-butyl-4-pentynoic acid], the neurite outgrowth ([2]; 1.0 mM, 2 mM) was “Induction of neurite outgrowth” and the teratogenic potency [3] was “most potent”.

For `C#CCC(CCCCC)C(=O)O` (stereo not drawn) [2-n-pentyl-4-pentynoic acid], the neurite outgrowth ([2]; 0.3 mM, 0.5 mM) was “Induction of neurite outgrowth”, the teratogenic potency [3] was “most potent” and the “immunofluorescence directed against NCAM” value [4] was “increased immunofluorescence”.

For `C#CCC(CCC)C(=O)O` (stereo not drawn) [2-n-propyl-4-pentynoic acid], the teratogenic potency [3] is listed as “most potent” and the “teratogenic potency of S-enantiomer relative to R-enantiomer” value [5] is listed as “more potent”.

For `C=CCC(CCC)C(=O)O` (stereo not drawn) [Example 4-en-VPA, 2-n-propyl-4-pentenoic acid], the “teratogenic potency of S-enantiomer relative to R-enantiomer” value [5] is listed as “more potent”.

In the case of `CC/C=C(\CCC)C(=O)O` [IV], the “antiproliferative potency / activity” value [1] is given as “lowers, but does not abolish”, the cellular neurotrophic activity [2] is given as “lowers, but does not abolish” and the teratogenic activities [5] is given as “very low or undetectable”. For the same compound, the anticonvulsant properties [6] was “good”.

For `C#CC[C@H](CCC)C(=O)O` [S-2-n-propyl-4-pentynoic acid], the “teratogenic potency of S-enantiomer relative to R-enantiomer” value [5] is listed as “significantly greater”.

For `CC#CCC(CCC)C(=O)O` (stereo not drawn) [VI], the “antiproliferative potency / activity” value [1] is given as “lowers, but does not abolish”, the cellular neurotrophic activity [2] is given as “lowers, but does not abolish” and the teratogenic activities [5] is given as “very low or undetectable”. For the same compound, the anticonvulsant properties [6] was “good”.

With `C/C=C\CC(CCC)C(=O)O` (stereo not drawn) [V] the “antiproliferative potency / activity” value [1] was “lowers, but does not abolish” and the cellular neurotrophic activity [2] was “lowers, but does not abolish”.

In the case of `CCCC(CCC)C(=O)O` [valproate, valproic acid], the antiproliferative action [7] is listed as “potently inhibit” and the “transfer into the central nervous system” value [8] is listed as “very limited”.

For `CCCC(CCC)C(N)=O` [valpromide], the antiproliferative action [7] is listed as “not antiproliferative” and the teratogenic activities [5] is listed as “non-teratogenic”.
